Experimental data taken from patent US9266871B2, “Trifluoromethyl-substituted fused pyrimidines and their use” (BAYER PHARMA AKTIENGESELLSCHAFT, priority 2013, dated 2016).

What was measured:
[1] = tested on: aorta rings; assay: Vasorelaxant effect in vitro (phenylephrine-contracted aorta rings); conditions: Oryctolagus cuniculus; relaxation of phenylephrine-induced contraction, rabbit aorta rings
Description: B-1. Vasorelaxant Effect In Vitro
Rabbits are stunned by a blow to the neck and exsanguinated. The aorta is removed, freed from adhering tissue and divided into rings of a width of 1.5 mm. The rings are placed individually under an initial tension in 5 ml organ baths with Krebs-Henseleit solution which is at 37° C., is gassed with carbogen and has the following composition (in each case mM): sodium chloride: 119; potassium chloride: 4.8; calcium chloride dihydrate: 1; magnesium sulphate heptahydrate: 1.4; potassium dihydrogenphosphate: 1.2; sodium bicarbonate: 25; glucose: 10. The contractile force is determined with Statham UC2 cells, amplified and digitalized using A/D transducers (DAS-1802 HC, Keithley Instruments Munich), and recorded in parallel on linear recorders. To produce a contraction, phenylephrine is added to the bath cumulatively in increasing concentration. After several control cycles, the substance to be investigated is added in each further run in increasing dosage in each case, and the height of the contraction achieved is compared with the height of the contraction reached in the last preceding run. This is used to calculate the concentration needed to reduce the magnitude of the control value by 50% (IC50 value). The standard administration volume is 5 μl; the DMSO content in the bath solution corresponds to 0.1%.

[2] = molecular target: T1, recombinant guanylate cyclase reporter cell line (Rattus norvegicus, UniProt P19686+P20595); assay: Effect on a recombinant guanylate cyclase reporter cell line; type: cell-based
T1 construct: expressed in transfected cells; host or cells: recombinant reporter cell line
T1 sequence (P19686 1-690): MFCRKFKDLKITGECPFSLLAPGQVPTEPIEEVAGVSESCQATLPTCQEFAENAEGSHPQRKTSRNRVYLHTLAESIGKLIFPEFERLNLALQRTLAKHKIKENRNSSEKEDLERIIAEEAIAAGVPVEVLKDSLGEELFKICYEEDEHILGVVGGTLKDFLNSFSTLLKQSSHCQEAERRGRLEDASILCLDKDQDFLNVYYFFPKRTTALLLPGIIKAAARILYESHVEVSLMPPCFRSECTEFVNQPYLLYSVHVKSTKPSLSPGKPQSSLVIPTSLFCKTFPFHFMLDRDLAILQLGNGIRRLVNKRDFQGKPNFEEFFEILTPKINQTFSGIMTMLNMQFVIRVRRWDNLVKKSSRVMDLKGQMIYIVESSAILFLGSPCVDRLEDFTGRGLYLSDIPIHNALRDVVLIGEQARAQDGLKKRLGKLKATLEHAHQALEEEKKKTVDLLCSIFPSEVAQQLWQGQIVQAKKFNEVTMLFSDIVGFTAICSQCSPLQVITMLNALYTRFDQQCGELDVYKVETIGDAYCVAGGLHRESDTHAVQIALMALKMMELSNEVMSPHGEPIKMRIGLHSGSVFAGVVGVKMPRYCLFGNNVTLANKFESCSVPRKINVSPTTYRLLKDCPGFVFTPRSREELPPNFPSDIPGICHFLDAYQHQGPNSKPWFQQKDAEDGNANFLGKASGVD
T1 sequence (P20595 1-619): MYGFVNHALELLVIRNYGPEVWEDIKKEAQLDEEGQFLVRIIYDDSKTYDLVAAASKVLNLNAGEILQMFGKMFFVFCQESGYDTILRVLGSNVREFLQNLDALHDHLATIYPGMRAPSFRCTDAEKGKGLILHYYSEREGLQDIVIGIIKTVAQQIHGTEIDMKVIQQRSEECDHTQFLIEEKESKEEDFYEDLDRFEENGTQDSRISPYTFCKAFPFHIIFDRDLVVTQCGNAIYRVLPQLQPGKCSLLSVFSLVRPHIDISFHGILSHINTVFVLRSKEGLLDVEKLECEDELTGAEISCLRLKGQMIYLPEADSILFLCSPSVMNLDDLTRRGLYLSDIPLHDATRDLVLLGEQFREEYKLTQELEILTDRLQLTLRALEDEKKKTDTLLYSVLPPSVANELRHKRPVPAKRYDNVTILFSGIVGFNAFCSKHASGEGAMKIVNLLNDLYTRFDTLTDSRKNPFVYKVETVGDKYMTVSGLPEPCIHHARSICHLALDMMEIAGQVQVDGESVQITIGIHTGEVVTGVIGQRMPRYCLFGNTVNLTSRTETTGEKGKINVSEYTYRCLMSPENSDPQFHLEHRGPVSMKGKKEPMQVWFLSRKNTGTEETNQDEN
Description: B-2. Effect on a Recombinant Guanylate Cyclase Reporter Cell Line
The cellular activity of the compounds according to the invention is determined using a recombinant guanylate cyclase reporter cell line, as described in F. Wunder et al., Anal. Biochem. 339, 104-112 (2005).

`C[C@@]1(C(F)(F)F)C(=O)Nc2nc(-c3nn(Cc4ncccc4F)c4ncc(F)cc34)nc(NCCC(F)(F)F)c21` (single isomer, unassigned) [Example 1-1] was tested, and the IC50 [1] was 265 nM and the “MEC (minimum effective concentration)” value [2] was 0.1 µM.
`C[C@]1(C(F)(F)F)C(=O)Nc2nc(-c3nn(Cc4ncccc4F)c4ncc(F)cc34)nc(NCCC(F)(F)F)c21` (single isomer, unassigned) [Example 1-2] was tested, and the IC50 [1] was 237 nM and the “MEC (minimum effective concentration)” value [2] was 1.0 µM.
